# Where a SMILES comes first, the peptide text is derived from it. Where no end group is shown, it is not given here. [ ]: non-standard residue; d: D form. pGlu = O=C1CC[C@@H](C(=O)O)N1
# What was measured:
# in vitro = test: in vitro
# Protocol: P value were calculated with two-way ANOVA. Source data are provided as a Source Data file.
# At indicated time point, 1 µl of HALT protease inhibitor was immediately added, and plasma was boiled and prepared using the peptidomics workflow described above. […] Half-lives were calculated using an exponential decay fit.
# human TACR3 = biological target: T1, human TACR3 (Homo sapiens, UniProt P29371); test: TACR agonist assay, PathHunter beta-arrestin recruitment (TACR3); format: cell-based; details: read-out: maximal activation at TACR3, higher compared to Substance P(6-11)
# T1 construct: host or cells: PathHunter beta-arrestin CHO-K1 cells
# T1 sequence (P29371 1-465): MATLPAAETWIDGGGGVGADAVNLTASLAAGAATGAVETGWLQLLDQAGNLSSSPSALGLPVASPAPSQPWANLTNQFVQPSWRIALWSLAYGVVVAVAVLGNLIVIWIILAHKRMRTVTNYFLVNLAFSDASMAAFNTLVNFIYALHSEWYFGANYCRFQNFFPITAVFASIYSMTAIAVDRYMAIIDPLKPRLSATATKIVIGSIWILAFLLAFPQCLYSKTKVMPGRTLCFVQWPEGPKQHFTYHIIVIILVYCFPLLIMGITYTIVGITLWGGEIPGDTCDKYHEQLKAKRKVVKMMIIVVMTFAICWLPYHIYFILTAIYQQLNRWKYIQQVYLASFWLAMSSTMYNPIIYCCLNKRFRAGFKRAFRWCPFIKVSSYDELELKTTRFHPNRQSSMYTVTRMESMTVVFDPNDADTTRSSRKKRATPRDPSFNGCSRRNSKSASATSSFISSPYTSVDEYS
# [1] = tested on: diet-induced obese male mice; test: 3-day food intake and body weight under daily dosing; format: in vivo, mouse; details: for Food Intake: 50 mg/kg
# Protocol: (§1) Fig. 5 Functional studies of […] in feeding and energy balance in mice. a Schematic of the primary amino acid sequence for full-length mouse GDF15 preproprotein and annotation of CAP-GDF15 sequence as well as the canonical GDF15 hormone sequence. b–d Food intake (b), respiratory exchange ratio (RER, c), and ambulatory activity (d) of 12–16-week diet-induced obese male mice following a single treatment of CAP-GDF15 (50 mg/kg, intraperitoneal) or vehicle control. e–g Food intake (e), RER (f), and ambulatory activity (g) of 12–16-week diet-induced obese male mice following a single treatment of scrambled CAP-GDF15 (50 mg/kg, intraperitoneal, scrambled sequence: pGlu-[…]-NH2) or vehicle control. h, i 3-day food intake (h) and body weight (i) of 12–16-week diet-induced obese male mice following treatment with CAP-GDF15 or scrambled CAP-GDF15 (50 mg/kg/day, IP), or vehicle control. Data are shown as means ± SEM. b–d, N = 12 mice/group; for e, f N = 8 mice/group; for h N = 7 food cages for vehicle and CAP-GDF15 groups and N = 5 for the scrambled peptide group; for i N = 14 mice for the vehicle group, N = 13 for the CAP-GDF15 group, and N = 5 for the scrambled peptide group. b–i injection occurred at time T = 0 (5:00 pm) and data were collected for the following 16 hrs. For (b-i), p values were calculated by two-way ANOVA. Source data are provided as a Source Data file.
# Lastly, to determine whether the acute food intake suppressive effects of CAP-GDF15 would lead to long-term suppression of feeding and obesity, we administered CAP-GDF15 or scrambled CAP-GDF15 (50 mg/kg/day, IP), or vehicle control to diet-induced obese mice. Food intake and body weight were monitored over a three-day period. A durable suppression of food intake in CAP-GDF15-treated mice was over the three-day experiment (Vehicle, 7.3 ± 0.5 g/mouse; […], 4.1 ± 0.9 g/mouse/day, P < 0.05, Fig. 5h). Consequently, and as expected, an increasing reduction in body weight was also detected (Vehicle, +0.1 ± 0.3 g/mouse; CAP-GDF15, −1.9 ± 0.3 g/mouse, P < 0.001, Fig. 5i). Importantly, mice treated with the scrambled CAP-GDF15 peptide were indistinguishable in body weight or food intake from control mice (P > 0.05 versus vehicle-treated mice, Fig. 5h, i).
# (§2) Animal experiments were performed according to a procedure approved by the Stanford University Administrative Panel on Laboratory Animal Care. Mice were maintained in 12-h light-dark cycles at 22 °C and about 50% relative humidity and fed a standard irradiated rodent diet. Where indicated, a high-fat diet (D12492, Research Diets 60% kcal from fat) was used. Male C57BL/6 J (stock number 000664) and male C57BL/6 J DIO mice were purchased from the Jackson Laboratory (stock number 380050). For studies in high-fat diet-fed mice, peptides were dissolved in 18:1:1 (by volume) of saline:Kolliphor EL (Sigma Aldrich):DMSO and administered to mice by intraperitoneal injections at a volume of 10 µl/g at the indicated doses for the indicated times. For lipopolysacchardide injection, LPS (Sigma, #L2880-10MG) was dissolved in saline and administered to mice at a volume of 5 µl/g at indicated dose. For fasting, food was removed from mice for 16 h. For running, a six-lane Columbus Instruments animal treadmill (product 1055-SRM-D65) was used with following 1 h protocol: 10 min at 6 m/min, 50 min at 18 m/min, and increase every 2 min by 2 m/min for the last 10 minutes, all at 12° incline. For all treatment experiments, mice were mock injected with the vehicle for 3–5 days until body weights were stabilized. Heparin plasma was harvested by submandibular bleed. For all experiments, mice were randomly assigned to treatment groups. Experimenters were not blinded to groups.
# [2] = tested on: diet-induced obese male mice; test: Metabolic chamber studies after a single dose (food intake, RER, movement, VO2, VCO2); format: in vivo, mouse; details: single dose 50 mg/kg intraperitoneal, diet-induced obese male mice, metabolic chambers
# Protocol: as §1, with “Data are shown as means ± SEM. b–d, N = 12 mice/group; for e, f N = 8 mice/group; for h N = 7 food cages for vehicle and CAP-GDF15 groups and N = 5 for the scrambled peptide group; for i N = 14 mice for the vehicle group, N = 13 for the CAP-GDF15 group, and N = 5 for the scrambled peptide group. b–i injection occurred at time T = 0 (5:00 pm) and data were collected for the following 16 hrs.” left out
# as §2
# For acute energy expenditure studies, food intake, RER, movement, VO2, and VCO2 were collected with CLAMS Oxymax Metabolic Cages. Mice were placed in individual metabolic cages for 24 hours prior to experiment. Mice were injected with either vehicle, 50 mg/kg CAP-GDF15, 50 mg/kg uncapped CAP-GDF15, or 50 mg/kg scrambled CAP-GDF15 at 5 pm at T = 0. […] All experiments were done with 3–5 month old DIO mice (Jackson, stock 380050), fed high-fat diet ad libitum.
# Supplementary Figure 5. Additional measurements from metabolic chambers of mice treated with CAP-GDF15. a CAP-GDF15 plasma concentration after administration of CAP-GDF15 (50 mg/kg, intraperitoneal) or vehicle control. b-c VO2 (b) and VCO2 (c) of 12-16-week diet-induced obese male mice following a single treatment of CAP-GDF15 (50 mg/kg, intraperitoneal) or vehicle control. d-e VO2 (d) and VCO2 (e) of 12-16-week diet-induced obese male mice following a single treatment of scrambled CAP-GDF15 (50 mg/kg, intraperitoneal, scrambled sequence: p[…]-NH2) or vehicle control. f Acute food intake of 12-16-week diet-induced obese male mice following a single treatment of CAP-GDF15 (50 mg/kg, intraperitoneal), uncapped CAP-GDF15 (50 mg/kg, intraperitoneal), or vehicle control. For (a), N=3/group; (b-c), N=12/group; for (d-e), N=8/group; for (f), N=5/group.
# For (a-f), injection occurred at time T=0 (5:00pm). Data are shown as means ± SEM. For (b-i), p values were calculated by two-way ANOVA. Source data are provided as a Source Data
# [3] = human, in vivo; cited from earlier work
# [4] = 50 mg/kg/day IP, diet-induced obese mice, N = 5, P > 0.05 versus vehicle
compound,measurement,setting,value
CSCC[C@H](NC(=O)[C@H](CC(C)C)NC(=O)CNC(=O)[C@H](Cc1ccccc1)NC(=O)[C@H](Cc1ccccc1)NC(=O)[C@@H]1CCC(=O)N1)C(N)=O [CAP-TAC1] ([pGlu]FFGLM-NH2),half-life at 10 µM,"in vitro; mouse, plasma",17.1 min
same,"plasma stability t1/2, earlier manuscript version quoted in the rebuttal","in vitro; mouse, plasma",14.4 min
same,Emax,human TACR3,~20%
CC(C)C[C@H](NC(=O)CNC(=O)[C@@H]1CCC(=O)N1)C(=O)N[C@@H](CCC(=O)O)C(=O)N[C@@H](C)C(=O)N[C@@H](CC(C)C)C(=O)N[C@@H](CCCNC(=N)N)C(=O)N[C@@H](C)C(=O)N[C@@H](CCCNC(=N)N)C(=O)N[C@@H](CC(C)C)C(=O)N[C@@H](CCCNC(=N)N)C(=O)N[C@H](C(N)=O)C(C)C [Scrambled Peptide] ([pGlu]GLEALRARLRV-NH2),Food Intake,"[1]; 24 h, individual animal 1",2.8 g
same,Food Intake,"[1]; 24 h, individual animal 2",2.6 g
same,Food Intake,"[1]; 24 h, individual animal 3",3.6 g
same,Food Intake,"[1]; 24 h, individual animal 4",3.6 g
same,Food Intake,"[1]; 24 h, individual animal 5",2.3 g
same,Food Intake,"[1]; 48 h, individual animal 1",6.2 g
same,Food Intake,"[1]; 48 h, individual animal 2",4.9 g
same,Food Intake,"[1]; 48 h, individual animal 3",7.3 g
same,Food Intake,"[1]; 48 h, individual animal 4",7.3 g
same,Food Intake,"[1]; 48 h, individual animal 5",4.2 g
same,Food Intake,"[1]; 72 h, individual animal 1",9.2 g
same,Food Intake,"[1]; 72 h, individual animal 2",7.4 g
same,Food Intake,"[1]; 72 h, individual animal 3",10.7 g
same,Food Intake,"[1]; 72 h, individual animal 4",10.9 g
same,Food Intake,"[1]; 72 h, individual animal 5",6.9 g
CSCC[C@H](NC(=O)[C@H](CC(C)C)NC(=O)CNC(=O)[C@H](Cc1ccccc1)NC(=O)[C@H](Cc1ccccc1)NC(=O)[C@H](CCC(N)=O)NC(=O)[C@H](CCC(N)=O)NC(=O)[C@@H]1CCCN1C(=O)[C@H](CCCCN)NC(=O)[C@@H]1CCCN1C(=O)[C@@H](N)CCCN=C(N)N)C(N)=O [Substance P],plasma stability t1/2,in vitro,8.5 min
same,half-life at 10 µM,"in vitro; mouse, plasma",4.5 min
CC(C)C[C@H](NC(=O)CNC(=O)[C@@H]1CCC(=O)N1)C(=O)N[C@@H](CCC(=O)O)C(=O)N[C@@H](C)C(=O)N[C@@H](CC(C)C)C(=O)N[C@@H](CCCNC(=N)N)C(=O)N[C@@H](C)C(=O)N[C@@H](CCCNC(=N)N)C(=O)N[C@@H](CC(C)C)C(=O)N[C@@H](CCCNC(=N)N)C(=O)N[C@H](C(N)=O)C(C)C [scrambled CAP-GDF15] ([pGlu]GLEALRARLRV-NH2),"3-day body weight compared with control mice, in words",[1]; [4],indistinguishable
same,"3-day food intake compared with control mice, in words",[1]; [4],indistinguishable
same,"effect on acute food intake, in words",[2],completely ineffective
same,effect on respiratory exchange ratio (RER),[2],completely ineffective
QFFGLM-NH2 [Substance P (6-11)],half-life at 10 µM,"in vitro; mouse, plasma",8.5 min
QLELRLRVAAGR [uncapped CAP-GDF15],"effect on acute food intake, in words",[2],significantly less efficacious
liraglutide,bioavailability,[3],55%

# — article PMC10709327, “A class of secreted mammalian peptides with potential to expand cell-cell communication” (Nature Communications, 2023)
